Measured values as given in patent US9051295B2, “1-substituted indazole derivative” (Dainippon Sumitomo Pharma Co., Ltd., priority 2012, dated 2015).

Legend:
Slc: ddY mice = experiment: Novel object recognition test in mice (mORT); format: in vivo; details: at 0.3 mg/kg, 1.0 mg/kg or 3 mg/kg
Protocol: Evaluation of Cognitive Function with Mice in Novel Object Recognition Test (Hereinafter, Referred to as “mORT”)
Slc: ddY mice (25 g to 30 g, male, Japan SLC) can be used in the novel object recognition test wherein the interval between the 1st trial (training) and the 2nd trial (test) correlates with the memory loss for the objects used in the 1st trial, and a significant memory-loss is observed when the 2nd trial is performed 24 hours after the 1st trial. According to the test mechanism, the present compounds were administered prior to the 1st trial, and the enhancement effect on memory in the 2nd trial was evaluated.

human α7 nAChR = molecular target: T1, human α7 nAChR (Homo sapiens, UniProt P36544); experiment: Evaluation of PAM activity with human α7 nACh receptor stably expressing cells (aequorin luminescence, FDSS7000, ACh EC20); format: cell-based; details: for α7PAM (%) @ 10 μmol/L: test compound 10 μmol/L, ACh at EC20, ratio of RLU (Max-Min) of test-compound wells to control wells; for PAM activity for α7 nAChR (in words): statement on Table 8 data
T1 construct: expressed in transfected cells; host or cells: GH4C1 cells (rat pituitary, ATCC CCL-82.2)
T1 sequence (P36544 23-502): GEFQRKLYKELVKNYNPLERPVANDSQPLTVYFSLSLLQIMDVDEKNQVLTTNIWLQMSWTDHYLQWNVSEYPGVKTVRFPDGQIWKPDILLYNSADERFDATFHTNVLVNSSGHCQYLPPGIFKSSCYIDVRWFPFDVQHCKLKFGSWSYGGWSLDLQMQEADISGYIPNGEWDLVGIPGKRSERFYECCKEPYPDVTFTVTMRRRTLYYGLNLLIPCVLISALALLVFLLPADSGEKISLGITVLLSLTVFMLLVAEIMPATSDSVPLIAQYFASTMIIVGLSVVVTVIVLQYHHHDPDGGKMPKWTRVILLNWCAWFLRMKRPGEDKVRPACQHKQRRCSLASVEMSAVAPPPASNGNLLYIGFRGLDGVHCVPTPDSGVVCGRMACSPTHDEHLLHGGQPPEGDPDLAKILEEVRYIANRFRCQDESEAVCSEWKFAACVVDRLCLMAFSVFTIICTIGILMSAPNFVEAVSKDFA
Text: Evaluation of PAM Activity with Human α7 nACh Receptor Stably Expressing Cells
(1) Human α7 nAChR Stably Expressing Cells
Human α7 nAChR stably expressing cells were generated and cultured. In detail, GH4C1 cells derived from rat pituitary (cat#CCL-82.2, ATCC, USA) were used as a host cell. PcDNA3.1Zeo vector containing a nucleotide sequence encoding a protein GenBank BAC81731 and pcDNA3.1 vector containing human α7 nAChR gene (cat#V790-20, invitrogen, Carlsbad, Calif., USA) were transfected to the cells to give aequorins and human α7 nAChR stably expressing cells respectively. The aequorins and human α7 nAChR stably expressing cells were screened with Zeocin (cat#R25001, invitrogen, Carlsbad, Calif., USA) and Geneticin (cat#10131-027, invitrogen, Carlsbad, Calif., USA) respectively.
The cells were cultured in F-10 Nutrient Mixture (Ham) medium (cat#11550-043, invitrogen, Carlsbad, Calif., USA) containing 2.5% fetal bovine serum (cat#2917354, ICN Biomedicals, Inc, USA), 15% inactivated horse serum (cat#26050-088, invitrogen, Carlsbad, Calif., USA), 1 μg/mL Geneticin, and 5 μg/mL Puromycin (cat#14861-84, invitrogen, Carlsbad, Calif., USA), in a Collagen Type 1-coated dish (cat#4030-010, iwaki, Tokyo, Japan). During the culture, the medium was replaced with fresh medium in every 2 to 3 days, and the cells were treated with TrypLE Express (cat#45604-021, invitrogen, Carlsbad, Calif., USA) to collect them in every 7 days. Thus, the cells were subcultured.
7 Days after subculturing, the cells were treated with TrypLE Express to collect them when they were about 80% confluent. The cells were suspended in a reaction medium containing Hanks (cat#14065-056, invitrogen, Carlsbad, Calif., USA)/20 mmol/L Hepes (cat#15630-080, invitrogen, Carlsbad, Calif., USA), Buffer (pH 7.4), F-10 Nutrient Mixture (Ham), and 0.1 mg/mL Geneticin, and the suspension was seeded in a 384-well plate (cat#781090, Greiner, Germany) at 20000 cells/25 μL per well.
On the next day after seeding, Viviren (cat#E649X, Promega, Madison, Wis., USA) was added to the medium so that the final concentration could be 4 μmol/L (15 μL/well). The plates were centrifuged and then placed in the dark for 4 hours at room temperature.
(2) Preparation of the Test Samples
Each of the test compounds was dissolved in DMSO to prepare each test sample at a concentration of 1000-fold the final concentration. To the solution was added Hanks/20 mM HEPES/0.2% BSA (cat#A3803, Sigma, St. Louis, Mo., USA), and the concentration was adjusted to 6-fold the final concentration.
(3) Evaluation of PAM Activity
FDSS7000 (Hamamatsu Photonics) was used to detect the luminescence signal evoked by α7 nAChR stimulation. The cells and a luminescent substrate were put on a plate, and the test sample was added thereto. […] After the addition of ACh, the luminescence signal (the central wavelength: 465 nm) was measured for 138 seconds to calculate RLU (Max-Min). The ratio of the RLU (Max-Min) of the test-compound-containing wells to that of the control wells was defined as PAM activity.

Row | SMILES | α7PAM (%) @ 10 μmol/L (human α7 nAChR) [%] | PAM activity for α7 nAChR (in words) (human α7 nAChR) | efficacy at higher doses (Slc: ddY mice)
1 | CO[C@H]1CC[C@H](NC(=O)N2CCC(n3ncc4cc(C)ccc43)CC2)CC1 [Example 1, N-(trans-4-methoxycyclohexyl)-4-(5-methyl-1H-indazol-1-yl)piperidine-1-carboxamide] | 1209 |  | the efficacy did not decrease
2 | COc1ccc2c(cnn2C2CCN(C(=O)NC3CCCCC3)CC2)c1 [Example 40] |  | stronger PAM activity than others | 
3 | CCc1ccc2c(cnn2[C@H]2CC[C@@H](NC(=O)NC3CCC(F)(F)CC3)CC2)c1 [Example 5, 1-(4,4-difluorocyclohexyl)-3-(cis-4-(5-ethyl-1H-indazol-1-yl)cyclohexyl)urea] | 1368 |  | 
4 | Cc1ccc2c(cnn2C2CCN(C(=O)NC3CCC(F)(F)CC3)CC2)c1 [Example 13, N-(4,4-difluorocyclohexyl)-4-(5-methyl-1H-indazol-1-yl)piperidine-1-carboxamide] | 3399 | stronger PAM activity than others | 

More lines, main results first:

Row | α7PAM (%) @ 10 μmol/L (human α7 nAChR) [%] | PAM activity for α7 nAChR (in words) (human α7 nAChR) | SMILES | efficacy at higher doses (Slc: ddY mice)
5 | 1226 |  | CO[C@H]1CC[C@H](NC(=O)N2CCC(n3ncc4cc(C5CC5)ccc43)CC2)CC1 [Example 74, 4-(5-cyclopropyl-1H-indazol-1-yl)-N-(trans-4-methoxycyclohexyl)piperidine-1-carboxamide] | the efficacy did not decrease
6 | 1034 |  | CO[C@H]1CCC[C@H](NC(=O)N2CCC(n3ncc4cc(C5CC5)ccc43)CC2)C1 [Example 211, 4-(5-cyclopropyl-1H-indazol-1-yl)-N-[(1S,3S)-3-methoxycyclohexyl]piperidine-1-carboxamide] | 
7 | 420 |  | Cc1ccc2c(cnn2C2CCN(C(=O)NC3CCC(OCC(F)(F)F)CC3)CC2)c1 (stereo not shown) [Example 83] | 
